Laboratory results reported in patent publication US8501946B2 (Glaxo Group Limited, priority 2009, dated 2013).

molecular target: T1, human recombinant P2X7 receptors (Homo sapiens, UniProt Q99572); test: Ethidium Accumulation Assay 1 (HEK293 cells, ATP-induced ethidium uptake); format: cell-based; details: HEK293 cells expressing human P2X7; 1 mM ATP; sometimes mean of more than one measurement; read-out: Assay 1 (antagonist pIC50 for blocking ATP responses) (converted)
T1 construct: expressed in transfected cells
T1 sequence (Q99572 1-595): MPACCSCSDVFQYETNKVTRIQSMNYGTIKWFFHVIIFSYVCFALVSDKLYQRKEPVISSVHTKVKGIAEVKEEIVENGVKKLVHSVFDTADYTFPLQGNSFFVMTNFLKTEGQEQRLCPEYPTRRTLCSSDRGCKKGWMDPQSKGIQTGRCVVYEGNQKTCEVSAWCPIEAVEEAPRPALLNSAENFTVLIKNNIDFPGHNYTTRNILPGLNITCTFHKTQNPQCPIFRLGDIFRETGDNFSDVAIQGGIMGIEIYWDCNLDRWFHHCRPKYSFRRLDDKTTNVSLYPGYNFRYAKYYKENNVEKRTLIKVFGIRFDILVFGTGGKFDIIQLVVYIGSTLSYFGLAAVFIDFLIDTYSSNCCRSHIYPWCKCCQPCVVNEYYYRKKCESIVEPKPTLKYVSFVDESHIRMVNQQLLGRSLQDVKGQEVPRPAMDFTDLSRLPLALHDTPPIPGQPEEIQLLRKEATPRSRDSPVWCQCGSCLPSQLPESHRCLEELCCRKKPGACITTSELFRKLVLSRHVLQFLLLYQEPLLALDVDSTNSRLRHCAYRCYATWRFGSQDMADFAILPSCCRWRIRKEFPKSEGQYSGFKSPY
Experimental: Eithidium Accumulation Assay 1
Studies were performed using NaCl assay buffer of the following composition: 140 mM NaCl, 10 mM HEPES [4-(2-hydroxyethyl)-1-piperazine-1-ethanesulfonic acid], 5 mM N-methyl-D-glucamine, 5.6 mM KCl, 10 mM D-glucose, 0.5 mM CaCl2 (pH 7.4).
Human Embryonic Kidney (HEK) 293 cells, stably expressing human recombinant P2X7 receptors, were grown in poly-D-lysine pretreated 96 well plates for 18-24 hours.
The cells were washed twice with 350 μl of the assay buffer, before addition of 50 μl of the assay buffer containing the putative P2X7 receptor antagonist compound. (A small amount of dimethyl sulfoxide, for initially dissolving the compound, is optionally used and present in this 50 μl test compound sample.) The cells were then incubated at room temperature (19-21° C.) for 30 min before addition of ATP and ethidium (100 μM final assay concentration). The ATP concentration was chosen to be close to the EC80 for the receptor type and was 1 mM for studies on the human P2X7 receptor. Incubations were continued for 8 or 16 min and were terminated by addition of 25 μl of 1.3M sucrose containing 4 mM of the P2X7 receptor antagonist Reactive Black 5 (Aldrich). […] Antagonist pIC50 values for blocking ATP responses were determined using iterative curve fitting techniques.

SMILES | IC50
O=C(c1cccc(C(F)(F)F)c1F)N1CCn2c(nnc2-c2ccccn2)C1 [Example 91, 7-{[2-fluoro-3-(trifluoromethyl)phenyl]carbonyl}-3-(2-pyridinyl)-5,6,7,8-tetrahydro[1,2,4]triazolo [4,3-a]pyrazine] | < 10 nM
O=C(c1cccc(C(F)(F)F)c1Cl)N1CCn2c(nnc2-c2cccnc2)C1 [Example 16, 7-{[2-Chloro-3-(trifluoromethyl)phenyl]carbonyl}-3-(3-pyridinyl)-5,6,7,8-tetrahydro[1,2,4]triazolo[4,3-a]pyrazine] | < 10 nM
Cc1cc(F)ccc1C(=O)N1CCn2c(nnc2-c2cnccn2)C1 [Example 107, 7-[(4-fluoro-2-methylphenyl)carbonyl]-3-(2-pyrazinyl)-5,6,7,8-tetrahydro[1,2,4]triazolo [4,3-a]pyrazine] | < 100 nM
O=C(c1cccc(Cl)c1Cl)N1CCn2c(nnc2-c2cccnc2)C1 [Example 61, 7-[(2,3-dichlorophenyl)carbonyl]-3-(3-pyridinyl)-5,6,7,8-tetrahydro[1,2,4]triazolo [4,3-a]pyrazine] | < 10 nM
O=C(c1ccc(F)cc1Cl)N1CCn2c(nnc2-c2cccc3cccnc23)C1 [Example 129, 8-{7-[(2-chloro-4-fluorophenyl)carbonyl]-5,6,7,8-tetrahydro[1,2,4]triazolo[4,3-a]pyrazin-3-yl}quinoline] | < 501 nM
O=C(c1cccc(Cl)c1Cl)N1CCn2c(nnc2-c2cccc(F)n2)C1 [Example 55, 7-[(2,3-dichlorophenyl)carbonyl]-3-(6-fluoro-2-pyridinyl)-5,6,7,8-tetrahydro[1,2,4]triazolo [4,3-a]pyrazine] | < 100 nM
Cn1ccc(-c2nnc3n2CCN(C(=O)c2cccc(Cl)c2Cl)C3)n1 [Example 63, 7-[(2,3-dichlorophenyl)carbonyl]-3-(1-methyl-1H-pyrazol-3-yl)-5,6,7,8-tetrahydro[1,2,4]triazolo [4,3-a]pyrazine] | < 10 nM
O=C(c1ccc(Cl)cc1Cl)N1CCn2c(nnc2-c2ccncn2)C1 [Example 102, 7-[(2,4-dichlorophenyl)carbonyl]-3-(4-pyrimidinyl)-5,6,7,8-tetrahydro[1,2,4]triazolo [4,3-a]pyrazine] | < 100 nM
O=C(c1ccc(F)cc1Cl)N1CCn2c(nnc2-c2ncc(F)cc2F)C1 [Example 84, 7-[(2-chloro-4-fluorophenyl)carbonyl]-3-(3,5-difluoro-2-pyridinyl)-5,6,7,8-tetrahydro[1,2,4]triazolo [4,3-a]pyrazine] | < 100 nM
O=C(c1cccc(Cl)c1Cl)N1CCn2c(Br)nnc2C1 [Example 6, 3-bromo-7-[(2,3-dichlorophenyl)carbonyl]-5,6,7,8-tetrahydro[1,2,4]triazolo [4,3-a]pyrazine] | < 100 nM
O=C(c1cccc(C(F)(F)F)c1Cl)N1CCn2c(nnc2-c2cscn2)C1 [Example 42, 7-{[2-chloro-3-(trifluoromethyl)phenyl]carbonyl}-3-(1,3-thiazol-4-yl)-5,6,7,8-tetrahydro[1,2,4]triazolo[4,3-a]pyrazine] | < 10 nM
O=C(c1ccc(Cl)c(Cl)c1)N1CCn2c(nnc2-c2cnccn2)C1 [Example 115, 7-[(3,4-dichlorophenyl)carbonyl]-3-(2-pyrazinyl)-5,6,7,8-tetrahydro[1,2,4]triazolo[4,3-a]pyrazine] | < 100 nM
O=C(c1ccc(F)cc1Cl)N1CCn2c(nnc2-c2ncccn2)C1 [Example 47, 7-[(2-chloro-4-fluorophenyl)carbonyl]-3-(2-pyrimidinyl)-5,6,7,8-tetrahydro[1,2,4]triazolo [4,3-a]pyrazine] | < 10 nM
O=C(c1ccc(Cl)cc1C(F)(F)F)N1CCn2c(nnc2-c2cnccn2)C1 [Example 142, 7-{[4-chloro-2-(trifluoromethyl)phenyl]carbonyl}-3-(2-pyrazinyl)-5,6,7,8-tetrahydro[1,2,4]triazolo[4,3-a]pyrazine] | < 100 nM
Cn1cccc1-c1nnc2n1CCN(C(=O)c1cccc(Cl)c1Cl)C2 [Example 48, 7-[(2,3-dichlorophenyl)carbonyl]-3-(1-methyl-1H-pyrrol-2-yl)-5,6,7,8-tetrahydro[1,2,4]triazolo [4,3-a]pyrazine] | < 100 nM
